Experiment: storage stability / shelf life of sinoporphyrin sodium prepared by the method
Type: physicochemical
Conditions: sinoporphyrin sodium prepared by the disclosed method; storage conditions not given

purity with the extension of storage time (storage stability): does not decrease significantly
shelf life: more than 24 months
SMILES: C=Cc1c(C)c2cc3nc(cc4nc(cc5[nH]c(cc1[nH]2)c(C)c5C(C)OC(C)c1c(C)c2cc5[nH]c(cc6nc(cc7nc(cc1[nH]2)C(C)=C7CCC(=O)[O-])C(CCC(=O)[O-])=C6C)c(C)c5C=C)C(C)=C4CCC(=O)[O-])C(CCC(=O)[O-])=C3C.[Na+].[Na+].[Na+].[Na+] (centres unmarked) [sinoporphyrin sodium, bis[1-[6,7-dipropionatesodium salt-1,3,5,8-tetramethyl-2-vinyl-4-porphyrin]ethyl] ether]
